Experimental data taken from paper doi:10.1101/2020.03.05.979567v1 (biorxiv, 2020).

Legend:
[1] = target: T1, recombinant mouse Nape-pld (Mus musculus, UniProt Q8BH82); assay: biochemical
T1 sequence (Q8BH82 1-396): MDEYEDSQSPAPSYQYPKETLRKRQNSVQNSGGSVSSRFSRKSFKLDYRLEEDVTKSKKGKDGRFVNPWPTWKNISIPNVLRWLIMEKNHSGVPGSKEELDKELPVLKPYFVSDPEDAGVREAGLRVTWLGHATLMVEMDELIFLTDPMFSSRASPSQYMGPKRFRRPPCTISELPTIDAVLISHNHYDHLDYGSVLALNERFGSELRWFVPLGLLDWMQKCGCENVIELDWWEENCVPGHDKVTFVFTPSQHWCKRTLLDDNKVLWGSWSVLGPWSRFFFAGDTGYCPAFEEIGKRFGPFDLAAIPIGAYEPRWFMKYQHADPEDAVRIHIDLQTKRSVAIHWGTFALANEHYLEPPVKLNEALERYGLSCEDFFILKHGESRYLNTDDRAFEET

[2] = target: T1, recombinant mouse Nape-pld; assay: biochemical; remark: listed apart in the source
[3] = target: T2, Streptomyces chromofuscus phospholipase D (ScPld) (Streptomyces chromofuscus, UniProt Q8KRU5); assay: PED-A1 hydrolysis, fluorescence; format: biochemical
T2 sequence (Q8KRU5 47-556): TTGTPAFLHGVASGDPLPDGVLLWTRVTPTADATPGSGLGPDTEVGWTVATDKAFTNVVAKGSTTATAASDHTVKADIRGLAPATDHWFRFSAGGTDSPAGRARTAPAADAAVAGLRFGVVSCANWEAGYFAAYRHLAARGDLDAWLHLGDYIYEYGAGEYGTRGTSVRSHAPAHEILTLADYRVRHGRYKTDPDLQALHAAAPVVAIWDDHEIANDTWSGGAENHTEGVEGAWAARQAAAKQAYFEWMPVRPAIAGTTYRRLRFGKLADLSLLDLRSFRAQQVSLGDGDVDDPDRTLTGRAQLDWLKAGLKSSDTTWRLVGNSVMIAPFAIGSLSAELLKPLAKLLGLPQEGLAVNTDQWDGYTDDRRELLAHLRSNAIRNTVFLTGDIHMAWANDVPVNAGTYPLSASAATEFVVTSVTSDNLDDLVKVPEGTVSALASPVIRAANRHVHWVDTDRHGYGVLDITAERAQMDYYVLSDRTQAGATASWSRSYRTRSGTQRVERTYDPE

[4] = target: NAPE-PLD (endogenous, HEK293 cells) (Homo sapiens, UniProt Q6IQ20); assay: PED-A1 hydrolysis in intact HEK293 cells, fluorescence; format: cell-based; settings: 30 min preincubation, 3.5 μM PED-A1
Chain of NAPE-PLD (endogenous, HEK293 cells) (Q6IQ20 whole entry): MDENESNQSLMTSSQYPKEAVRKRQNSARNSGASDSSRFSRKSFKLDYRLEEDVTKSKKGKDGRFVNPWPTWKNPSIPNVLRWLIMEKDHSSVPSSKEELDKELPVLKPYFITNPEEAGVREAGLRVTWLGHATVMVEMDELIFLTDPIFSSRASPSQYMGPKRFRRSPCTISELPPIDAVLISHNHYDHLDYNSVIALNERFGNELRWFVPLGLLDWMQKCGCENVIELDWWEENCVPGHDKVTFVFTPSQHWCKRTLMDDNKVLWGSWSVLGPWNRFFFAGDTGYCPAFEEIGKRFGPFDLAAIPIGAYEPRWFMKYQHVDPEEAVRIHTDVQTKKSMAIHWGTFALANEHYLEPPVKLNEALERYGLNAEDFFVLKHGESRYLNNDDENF

[5] = target: T1, recombinant mouse Nape-pld; assay: PED-A1 hydrolysis, fluorescence, initial rate; format: biochemical
[6] = target: T1, recombinant mouse Nape-pld; assay: biochemical; remark: listed apart in the source
[7] = target: T1, recombinant mouse Nape-pld; assay: PED-A1 hydrolysis kinetics, fluorescence; format: biochemical

Question: COc1ccc(Cl)cc1Cc1cc(Cl)ccc1OC [Inh 19, CAS 7569-57-5] was tested. Which IC50 [1] did it give?
Answer: Its IC50 is over 200 µM.

Question: For [H]/N=C(\N/C(=N/[H])NCCCCCCNC(=N)NC(=N)Nc1ccc(Cl)cc1)Nc1ccc(Cl)cc1 [Inh 10, Chlorhexidine], which IC50 [2] is on record?
Answer: Its IC50 is 10.4 µM.

Question: Which IC50 [3] does the source give for Oc1c(Cl)cc(Cl)cc1Sc1cc(Cl)cc(Cl)c1O [Inh 2, bithionol] here?
Answer: The IC50 was over 200 µM.

Question: And the IC50 [4]?
Answer: Its IC50 is 10.7 µM.

Question: What about the IC50 [2] of the same compound?
Answer: The IC50 was 2.1 µM.

Question: With Oc1cc(Cl)ccc1Oc1ccc(Cl)cc1Cl [Inh 25, triclosan] as the compound, how does the IC50 [5] read?
Answer: Its IC50 is 62.9 µM.

Question: With Oc1ccc(Cl)cc1Cc1cc(Cl)ccc1O [Inh 17, Dichlorophen] as the compound, how does the IC50 [5] read?
Answer: The IC50 was 23.2 µM.

Question: How did the IC50 [5] turn out when CC(C)(c1cc(Cl)c(O)c(Cl)c1)c1cc(Cl)c(O)c(Cl)c1 [Inh 24, CAS 79-95-8] was run?
Answer: Its IC50 is 64.7 µM.

Question: O=C(Nc1ccc(Cl)cc1)Nc1ccc(Cl)c(Cl)c1 [Inh 26, triclocarban] was tested. Which IC50 [6] did it give?
Answer: Its IC50 is over 200 µM.

Question: How did the IC50 [2] turn out when CC1=C(O)C(=O)C=C2C1=CC=C1[C@@]2(C)CC[C@@]2(C)[C@@H]3C[C@](C)(C(=O)O)CC[C@]3(C)CC[C@]12C [Inh 5, Tripterine] was run?
Answer: The IC50 was 3 µM.

Question: COc1c(O)cc2oc3cc(O)c(CC=C(C)C)c(O)c3c(=O)c2c1CC=C(C)C [Inh 3, Mangostin] was tested. Which IC50 [2] did it give?
Answer: Its IC50 is 2.8 µM.

Question: Which IC50 [5] does the source give for CCCCC(=O)O[C@H]1CC[C@H]2[C@@H]3CCc4cc(O)ccc4[C@H]3CC[C@]12C [Inh 7, estradiol valerate] here?
Answer: The IC50 was 7.8 µM.

Question: What does the source list for Oc1c(Cl)cc(Cl)c(Cl)c1Cc1c(O)c(Cl)cc(Cl)c1Cl [Inh 1, hexachlorophene]?
Answer: Ki [7]: ~2 µM; IC50 [3]: 149 µM; IC50 [4]: 9.8 µM; IC50 [2]: 1.6 µM; IC50 [5]: ~2 µM

Question: With Oc1ccc(Cl)cc1Sc1cc(Cl)ccc1O [Inh 18, Fenticlor] as the compound, how does the IC50 [5] read?
Answer: Its IC50 is 26.8 µM.

Question: How did the IC50 [2] turn out when O=c1c2ccccc2[se]n1-c1ccccc1 [Inh 4, ebselen] was run?
Answer: The IC50 was 2.8 µM.

Question: Cc1cc2c(C(C)C)c(O)c(O)c(C=O)c2c(O)c1-c1c(C)cc2c(C(C)C)c(O)c(O)c(C=O)c2c1O [Inh 6, Gossypol] was tested. Which IC50 [2] did it give?
Answer: The IC50 was 6.9 µM.

Question: With CC(C)=CCC[C@]1(C)C=Cc2c(O)c3c(c(CC=C(C)C)c2O1)O[C@]12C(=C[C@@H]4C[C@H]1C(C)(C)O[C@@]2(C/C=C(/C)C(=O)O)C4=O)C3=O [Inh 9, Gambogic acid] as the compound, how does the IC50 [2] read?
Answer: The IC50 was 9.9 µM.

Question: With Oc1c(Cl)cc(Cl)cc1Cc1cc(Cl)cc(Cl)c1O [Inh 21, CAS 1940-43-8] as the compound, how does the IC50 [5] read?
Answer: The IC50 was 26.5 µM.

Question: How did the IC50 [5] turn out when Oc1c(Cl)cc(Cl)cc1C(c1cc(Cl)cc(Cl)c1O)C(Cl)(Cl)Cl [Inh 23, CAS 92167-59-4] was run?
Answer: The IC50 was 2.8 µM.

Question: For Clc1cc(Cl)c(Cl)c(Cc2cc(Cl)cc(Cl)c2Cl)c1 [Inh 15, CAS 2888-15-5], which IC50 [1] is on record?
Answer: The IC50 was over 200 µM.

Question: COc1ccc(C(=O)c2ccccc2O)c(O)c1 [Inh 14, dioxybenzone] was tested. Which IC50 [2] did it give?
Answer: Its IC50 is 19.1 µM.

Question: For Oc1c(Br)cc(Cl)cc1Cc1cc(Cl)cc(Br)c1O [Inh 22, CAS 15435-29-7], which IC50 [5] is on record?
Answer: Its IC50 is 5 µM.
